Several values for one entry are separate records, joined by “and”; a condition that tells them apart may be missing. Equal entries are not always repeated.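 Assay format: 96-well plates, 48-hour exposure. At the GI50, growth is halved. TGI: total growth inhibition.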 Where a SMILES comes first, the peptide text is derived from it. [ ]: non-standard residue; d: D form. The star is where a group is joined. ξ: configuration not given here. ξF = NC(Cc1ccccc1)C(=O)O; Cbz = O=C(OCc1ccccc1)*; Aib = CC(C)(N)C(=O)O
Assays:
Test in all cases: inhibition of tumour cell growth, NCI panel, 48 h
CAKI-1 renal = test system: CAKI-1 renal
HOP-92 NSCLC = test system: HOP-92 NSCLC
K-562 leukemia = test system: K-562 leukemia
M14 melanoma = test system: M14 melanoma
MOLT-4 leukemia = test system: MOLT-4 leukemia
NCI-H522 lung = test system: NCI-H522 lung
SF-268 CNS = test system: SF-268 CNS
SF-295 CNS = test system: SF-295 CNS
T-47D breast = test system: T-47D breast
KM12 colon = test system: KM12 colon

Compound: CCOC(=O)CNC(=O)C(Cc1ccccc1)NC(=O)C(C)(C)NC(=O)OCc1ccccc1 (stereo not given) (Cbz-[Aib]-[ξF]-Gly-OEt)
- TGI (CAKI-1 renal): > 100 µM
- TGI (HOP-92 NSCLC): > 100 µM
- TGI (K-562 leukemia): > 100 µM
- TGI (M14 melanoma): > 100 µM
- TGI (MOLT-4 leukemia): > 100 µM
- TGI (NCI-H522 lung): > 100 µM
- TGI (SF-268 CNS): > 100 µM
- TGI (SF-295 CNS): > 100 µM
- TGI (T-47D breast): > 100 µM

Compound: CN(Cc1cn(O)c2nc(=N)nc(N)c-2n1)c1ccc(C(=O)NC23CC4CC(CC(C4)C2)C3)cc1
- TGI (CAKI-1 renal): > 100 µM
- TGI (K-562 leukemia): > 100 µM
- TGI (KM12 colon): > 100 µM
- TGI (M14 melanoma): > 100 µM
- TGI (MOLT-4 leukemia): > 100 µM
- TGI (SF-268 CNS): 81.4 µM
- TGI (SF-295 CNS): > 100 µM
- TGI (T-47D breast): > 100 µM

Compound: CC1(CO)COS(=O)OC1 (stereo not given)
- TGI (HOP-92 NSCLC): > 100 µM
- TGI (KM12 colon): > 100 µM
- TGI (MOLT-4 leukemia): > 100 µM
- TGI (NCI-H522 lung): > 100 µM
- TGI (SF-268 CNS): > 100 µM
- TGI (SF-295 CNS): > 100 µM
- TGI (T-47D breast): > 100 µM

Compound: COc1cc(/C=N/c2nc3cc4sc(/N=C/c5cc(OC)c(OC)c(OC)c5)nc4cc3s2)cc(OC)c1OC
- TGI (CAKI-1 renal): > 100 µM
- TGI (HOP-92 NSCLC): > 100 µM
- TGI (K-562 leukemia): > 100 µM
- TGI (KM12 colon): > 100 µM
- TGI (M14 melanoma): > 100 µM
- TGI (MOLT-4 leukemia): > 100 µM
- TGI (NCI-H522 lung): > 100 µM
- TGI (SF-268 CNS): > 100 µM
- TGI (SF-295 CNS): > 100 µM
- TGI (T-47D breast): > 100 µM

Compound: OCC(O)CNc1ncnc2ccccc12 (stereo not given)
- TGI (CAKI-1 renal): > 100 µM
- TGI (HOP-92 NSCLC): > 100 µM
- TGI (K-562 leukemia): > 100 µM
- TGI (KM12 colon): > 100 µM
- TGI (M14 melanoma): > 100 µM
- TGI (MOLT-4 leukemia): > 100 µM
- TGI (NCI-H522 lung): > 100 µM
- TGI (SF-268 CNS): > 100 µM
- TGI (SF-295 CNS): > 100 µM
- TGI (T-47D breast): > 100 µM

Compound: COc1ccc(-c2nc3c(nc2-c2ccc(OC)cc2)C(N)=NS(=O)(=O)N3)cc1
- TGI (CAKI-1 renal): > 100 µM
- TGI (K-562 leukemia): > 100 µM
- TGI (KM12 colon): > 100 µM
- TGI (MOLT-4 leukemia): > 100 µM
- TGI (NCI-H522 lung): > 100 µM
- TGI (SF-268 CNS): > 100 µM
- TGI (SF-295 CNS): > 100 µM

Compound: CC1C(=O)CC(c2cccs2)N(N=O)C1c1cccs1 (stereo not given)
- TGI (CAKI-1 renal): > 100 µM
- TGI (HOP-92 NSCLC): 83.3 µM
- TGI (K-562 leukemia): 27.6 µM
- TGI (KM12 colon): > 100 µM
- TGI (MOLT-4 leukemia): 73.7 µM
- TGI (NCI-H522 lung): > 100 µM
- TGI (SF-268 CNS): > 100 µM
- TGI (SF-295 CNS): > 100 µM

Compound: O=C1c2cccnc2C(=O)c2c1c(C(=O)OCCN1CCCCC1)c1ccccn21
- GI50 (CAKI-1 renal): 26.9 nM
- TGI (CAKI-1 renal): 1.53 µM
- GI50 (HOP-92 NSCLC): 42.6 nM
- TGI (HOP-92 NSCLC): 0.285 µM
- GI50 (K-562 leukemia): 48.4 nM
- TGI (K-562 leukemia): 1.67 µM
- GI50 (KM12 colon): 160 nM
- TGI (KM12 colon): 9.02 µM
- GI50 (M14 melanoma): 14.7 nM
- TGI (M14 melanoma): 0.0656 µM
- GI50 (MOLT-4 leukemia): 162 nM
- TGI (MOLT-4 leukemia): 2.21 µM
- GI50 (NCI-H522 lung): 18 nM
- TGI (NCI-H522 lung): 0.0992 µM
- GI50 (SF-268 CNS): 34.5 nM
- TGI (SF-268 CNS): 0.365 µM
- GI50 (SF-295 CNS): 31.1 nM
- TGI (SF-295 CNS): 0.2 µM
- GI50 (T-47D breast): 515 nM
- TGI (T-47D breast): 7.4 µM

Compound: CCN(CC)CC[n+]1ccc2c(C)c3[nH]c4ccc(O)cc4c3c(C)c2c1
- GI50 (CAKI-1 renal): 3410 nM
- TGI (CAKI-1 renal): 49.6 µM and 16.3 µM
- GI50 (HOP-92 NSCLC): 2330 nM
- TGI (HOP-92 NSCLC): 32.6 µM and 12.4 µM
- TGI (K-562 leukemia): 42.5 µM and 40.2 µM
- GI50 (KM12 colon): 3720 nM
- TGI (KM12 colon): 20.1 µM and 17.6 µM
- TGI (M14 melanoma): 34.9 µM
- GI50 (MOLT-4 leukemia): 181 nM
- TGI (MOLT-4 leukemia): 11 µM and 12.4 µM
- GI50 (NCI-H522 lung): 1560 nM
- TGI (NCI-H522 lung): 10.7 µM and 8.66 µM
- GI50 (SF-268 CNS): 685 nM
- TGI (SF-268 CNS): 7.3 µM and 7.53 µM
- TGI (SF-295 CNS): 30.1 µM and 28.4 µM
- TGI (T-47D breast): 12.3 µM

Compound: S=c1c2[nH]cnc2ncn1CCSC1=NC=NC2=NC=NC21 (stereo not given)
- TGI (CAKI-1 renal): > 100 µM
- TGI (HOP-92 NSCLC): > 100 µM
- TGI (K-562 leukemia): > 100 µM
- TGI (KM12 colon): > 100 µM
- TGI (M14 melanoma): > 100 µM
- TGI (MOLT-4 leukemia): > 100 µM
- TGI (NCI-H522 lung): > 100 µM
- TGI (SF-268 CNS): > 100 µM
- TGI (SF-295 CNS): > 100 µM
- TGI (T-47D breast): > 100 µM

Compound: CC(C)(C)c1ccc2c(c1)C#Cc1cc(C(C)(C)C)ccc1OCCCO2
- TGI (CAKI-1 renal): > 100 µM
- TGI (K-562 leukemia): > 100 µM
- TGI (KM12 colon): > 100 µM
- TGI (M14 melanoma): > 100 µM
- TGI (MOLT-4 leukemia): > 100 µM
- TGI (NCI-H522 lung): > 100 µM
- TGI (SF-268 CNS): > 100 µM
- TGI (SF-295 CNS): > 100 µM
- TGI (T-47D breast): > 100 µM

Compound: CNC1Cc2c[nH]c3cccc(c23)C12C=C(C)C(=O)O2 (stereo not given)
- TGI (CAKI-1 renal): > 100 µM
- TGI (HOP-92 NSCLC): > 100 µM
- TGI (K-562 leukemia): > 100 µM
- TGI (KM12 colon): > 100 µM
- TGI (M14 melanoma): > 100 µM
- TGI (MOLT-4 leukemia): > 100 µM
- TGI (NCI-H522 lung): > 100 µM
- TGI (SF-268 CNS): > 100 µM
- TGI (SF-295 CNS): > 100 µM
- TGI (T-47D breast): > 100 µM

Compound: NC(CCOCCP(=O)(O)CCC1C=CC=CC1)C(=O)O (stereo not given)
- TGI (CAKI-1 renal): > 100 µM
- TGI (HOP-92 NSCLC): > 100 µM
- TGI (K-562 leukemia): > 100 µM
- TGI (KM12 colon): > 100 µM
- TGI (M14 melanoma): > 100 µM
- TGI (MOLT-4 leukemia): > 100 µM
- TGI (NCI-H522 lung): > 100 µM
- TGI (SF-268 CNS): > 100 µM
- TGI (SF-295 CNS): > 100 µM
- TGI (T-47D breast): > 100 µM

Compound: CCOC(=O)CCC(C(=O)OCC)n1nc2ccc(Nc3c(C)[n+]([O-])c4cc(F)c(OCC)cc4[n+]3[O-])cc2n1 (stereo not given)
- TGI (CAKI-1 renal): > 100 µM
- TGI (HOP-92 NSCLC): 87.8 µM
- TGI (K-562 leukemia): > 100 µM
- TGI (KM12 colon): > 100 µM
- TGI (M14 melanoma): > 100 µM
- TGI (MOLT-4 leukemia): > 100 µM
- TGI (NCI-H522 lung): > 100 µM
- TGI (SF-268 CNS): 37.6 µM
- TGI (SF-295 CNS): > 100 µM
- TGI (T-47D breast): > 100 µM

Compound: CSc1nc(CO)c(CO)n1C
- TGI (CAKI-1 renal): > 100 µM
- TGI (HOP-92 NSCLC): > 100 µM
- TGI (K-562 leukemia): > 100 µM
- TGI (KM12 colon): > 100 µM
- TGI (MOLT-4 leukemia): > 100 µM
- TGI (NCI-H522 lung): > 100 µM
- TGI (SF-268 CNS): > 100 µM
- TGI (SF-295 CNS): > 100 µM

Compound: Cc1[nH]c(=O)[nH]c(=O)c1/C=C/C(=O)NC(CO)CS(=O)CS(C)=O (stereo not given)
- TGI (CAKI-1 renal): 13.3 µM
- TGI (HOP-92 NSCLC): 44 µM
- TGI (K-562 leukemia): 135 µM
- TGI (KM12 colon): > 92.1 µM
- TGI (MOLT-4 leukemia): 66.5 µM
- TGI (NCI-H522 lung): 32.3 µM
- TGI (SF-268 CNS): 35.2 µM
- TGI (SF-295 CNS): 77.5 µM

From PubChem BioAssay (NCI)
